We go through one compound from patent WO2019242687A1, “1,3-dioxane-4,6-dione compound, and preparation method, pharmaceutical composition, and application thereof” (Shanghai Institute of Materia Medica of CAS, priority 2018, dated 2018).

Changes are numbered by the printed parent chain.

One assay addresses T1, SIRT1 F273L (Homo sapiens, UniProt Q96EB6, F273L).
T1 construct: made in house
T1 sequence (Q96EB6 1-747 F273L): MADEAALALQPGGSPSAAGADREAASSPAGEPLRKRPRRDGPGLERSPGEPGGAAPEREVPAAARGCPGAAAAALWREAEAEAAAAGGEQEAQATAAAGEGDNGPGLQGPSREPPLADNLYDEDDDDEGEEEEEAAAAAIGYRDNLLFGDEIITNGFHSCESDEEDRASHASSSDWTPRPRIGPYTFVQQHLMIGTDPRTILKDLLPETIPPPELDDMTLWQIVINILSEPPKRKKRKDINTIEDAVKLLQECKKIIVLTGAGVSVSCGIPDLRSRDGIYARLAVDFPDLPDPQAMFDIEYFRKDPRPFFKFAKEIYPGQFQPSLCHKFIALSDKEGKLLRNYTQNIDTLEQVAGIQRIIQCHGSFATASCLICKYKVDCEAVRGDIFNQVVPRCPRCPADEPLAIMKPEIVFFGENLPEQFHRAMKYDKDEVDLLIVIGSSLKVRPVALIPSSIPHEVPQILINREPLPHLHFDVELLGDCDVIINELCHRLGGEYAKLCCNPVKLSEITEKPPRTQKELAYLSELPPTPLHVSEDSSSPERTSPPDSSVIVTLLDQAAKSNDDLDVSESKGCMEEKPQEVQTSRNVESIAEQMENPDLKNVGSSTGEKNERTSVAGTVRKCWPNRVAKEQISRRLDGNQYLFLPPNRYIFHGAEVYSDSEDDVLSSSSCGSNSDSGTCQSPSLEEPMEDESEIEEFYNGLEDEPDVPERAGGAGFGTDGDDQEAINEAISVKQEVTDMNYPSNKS
Kind of assay: Inhibitory constant on SIRT1 mutant F273L. The assay is classed as biochemical.

Assay [1] concerns p53 acetylation levels in SH-SY5Y human neuroblastoma cells. The assay is described as follows: Effect of compounds on p53 acetylation level in cells (Western blot). The assay is classed as cell-based. The following applies: ATRA-induced differentiation, compound 10 μM, 2 h, Figure 5.
The next assay addresses T2, SIRT1 D348A (Homo sapiens, UniProt Q96EB6, D348A).
T2 construct: made in house
T2 sequence (Q96EB6 1-747 D348A): T1 sequence (Q96EB6 1-747 F273L) with L273F, D348A
Kind of assay: Inhibitory constant on SIRT1 mutant D348A. The assay is classed as biochemical.

For the next assay, the target named is T3, SIRT1 wild type (Homo sapiens, UniProt Q96EB6).
T3 sequence (Q96EB6 1-747): T1 sequence (Q96EB6 1-747 F273L) with L273F
The assay is described as follows: Inhibitory constant on SIRT1 wild type. The assay is classed as biochemical.

For `COc1cc(C=C2C(=O)OC(c3ccccc3)OC2=O)cc(Br)c1O` (stereo not shown) [Compound S3, 5-(3-bromo-4-hydroxy-5-methoxybenzylidene) -2-phenyl-1,3-dioxane-4,6-dione], the Ki worked out at 850 nM at SIRT1 F273L, 4330 nM on SIRT1 D348A and 160 nM on SIRT1 wild type. For the same compound, the “effect on decrease of p53 acetylation level” value in assay [1] is “抑制ATRA诱导的SH-SY5Y细胞分化过程中p53乙酰化水平降低”.
